Results taken from PMC3885546, “Structural Determinants of the 5′-Methylthioinosine Specificity of Plasmodium Purine Nucleoside Phosphorylase” (PLoS ONE, 2014).
Numbering of substitutions follows the chain as printed. Numbers in names are those of the source. Like-named read-outs stand apart in the source and are kept apart here. Marks after values point to notes of the source that are not given here.

What was measured:
[1] = system: P. falciparum; parameters: method as in PMID 22096507; details: Aotus model; cited from earlier work
[2] = target: T1, Pf Tyr160Phe PNP (Plasmodium falciparum, UniProt Q8T9Z7, Y160F); experiment: Inhibition by immucillins (initial and slow onset); format: biochemical; details: initial
T1 construct: made in house; host or cells: Escherichia coli Top 10
T1 sequence (Q8T9Z7 whole entry Y160F): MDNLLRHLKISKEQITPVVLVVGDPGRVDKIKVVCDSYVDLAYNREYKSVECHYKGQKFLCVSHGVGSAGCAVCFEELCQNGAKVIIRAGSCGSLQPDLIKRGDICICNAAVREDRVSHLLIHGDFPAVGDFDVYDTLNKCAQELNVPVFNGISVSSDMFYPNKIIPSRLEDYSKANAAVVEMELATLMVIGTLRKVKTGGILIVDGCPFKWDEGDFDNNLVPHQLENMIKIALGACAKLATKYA
Method: (§1) Kinetic assays were completed in 50 mM KH2PO4 at pH 7.4 measuring phosphorylysis of inosine or MTI by PNP in a coupled reaction with 60 milliunits/ml xanthine oxidase to convert hypoxanthine to uric acid. […] Assays were performed with excess substrate in the presence of inhibitors. Inhibition studies measured both initial (Ki) and slow onset inhibition (Ki*) for inhibitors. The initial onset inhibition was analyzed by using the following equation: ν ο = (k cat×S)/(K m(1+I/Ki)+S), ν ο is the steady state rate, k cat catalytic rate, S is substrate concentration, Km is Michealis constant for inosine, I is inhibitor concentration, and Ki is the equilibrium dissociation constant.

[3] = target: T2, Pf V66I:V73I PNP (Plasmodium falciparum, UniProt Q8T9Z7, V66I/V73I); experiment: Inhibition by immucillins (initial and slow onset); format: biochemical; details: initial
T2 construct: made in house; host or cells: Escherichia coli Top 10
T2 sequence (Q8T9Z7 whole entry V66I/V73I): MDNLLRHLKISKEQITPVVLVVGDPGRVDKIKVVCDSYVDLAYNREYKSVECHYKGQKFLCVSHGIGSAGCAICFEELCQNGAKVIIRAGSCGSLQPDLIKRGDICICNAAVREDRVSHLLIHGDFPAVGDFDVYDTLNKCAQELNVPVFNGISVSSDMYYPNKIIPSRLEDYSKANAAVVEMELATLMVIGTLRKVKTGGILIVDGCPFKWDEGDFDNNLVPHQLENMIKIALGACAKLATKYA
Method: as §1

[4] = target: T3, Pf Val66Ile PNP (Plasmodium falciparum, UniProt Q8I3X4, V66I); experiment: Inhibition by immucillins (initial and slow onset); format: biochemical; details: slow onset
T3 construct: made in house; host or cells: Escherichia coli Top 10
T3 sequence (Q8I3X4 whole entry V66I): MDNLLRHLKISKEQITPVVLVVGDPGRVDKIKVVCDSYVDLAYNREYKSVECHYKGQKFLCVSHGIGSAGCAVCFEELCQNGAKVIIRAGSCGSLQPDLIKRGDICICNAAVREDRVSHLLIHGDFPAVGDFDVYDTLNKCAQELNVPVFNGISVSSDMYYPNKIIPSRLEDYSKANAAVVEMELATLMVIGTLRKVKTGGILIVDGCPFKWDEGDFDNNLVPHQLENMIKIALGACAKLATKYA
Method: as §1

[5] = target: T4, Pf V66I:V73I:Y160F PNP (Plasmodium falciparum, UniProt Q8T9Z7, V66I/V73I/Y160F); experiment: Inhibition by immucillins (initial and slow onset); format: biochemical; details: initial
T4 construct: made in house; host or cells: Escherichia coli Top 10
T4 sequence (Q8T9Z7 whole entry V66I/V73I/Y160F): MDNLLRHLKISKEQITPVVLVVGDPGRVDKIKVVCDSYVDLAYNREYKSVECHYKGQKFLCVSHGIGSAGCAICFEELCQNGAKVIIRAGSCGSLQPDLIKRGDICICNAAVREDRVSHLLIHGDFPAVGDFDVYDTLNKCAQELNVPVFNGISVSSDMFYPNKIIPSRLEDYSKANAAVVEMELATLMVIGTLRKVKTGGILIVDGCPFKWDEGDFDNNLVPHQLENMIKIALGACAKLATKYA
Method: as §1

[6] = target: TgPNPWT; details: TgPNP WT, ref Chaudhary, et al. [18], cited from earlier work
[7] = system: P. falciparum; details: purine-rich environment of cultured red blood cells; cited from earlier work
[8] = system: TgPNPWT; experiment: Inhibition by immucillins (literature values); format: biochemical, Toxoplasma gondii; details: TgPNP versus PfPNP
[9] = system: PfPNP versus mammalian PNP; parameters: method as in PMID 15576366; details: cited from earlier work
[10] = substrate: OC[C@H]1O[C@@H](n2cnc3c(O)ncnc32)[C@H](O)[C@@H]1O; experiment: Substrate kinetics, xanthine oxidase coupled phosphorolysis assay; format: biochemical, Plasmodium falciparum; details: other: wild type PfPNP, substrate = label, 50 mM KH2PO4 pH 7.4, mean ± SD
Method: Kinetic assays were completed in 50 mM KH2PO4 at pH 7.4 measuring phosphorylysis of inosine or MTI by PNP in a coupled reaction with 60 milliunits/ml xanthine oxidase to convert hypoxanthine to uric acid. Formation of uric acid was measured at 293 nm wavelength (E293 = 12.9 mM^−1 cm^−1), [20]. In cases where activity for MTI was low, increased protein concentration (10 µg/ml) was used to check enzyme function. Assays were performed with excess substrate in the presence of inhibitors. Inhibition studies measured both initial (Ki) and slow onset inhibition (Ki*) for inhibitors. The initial onset inhibition was analyzed by using the following equation: ν ο = (k cat×S)/(K m(1+I/Ki)+S), ν ο is the steady state rate, k cat catalytic rate, S is substrate concentration, Km is Michealis constant for inosine, I is inhibitor concentration, and Ki is the equilibrium dissociation constant.

[11] = target: the molecule itself; experiment: SEC; Superose 12 gel filtration, 0.1 ml of 1 mg/ml loaded, 20 mM HEPES, 50 mM KCl, 5 mM KH2PO4, 0.1 mM DTT, pH 7.4, 0.5 ml/min; self-association (hexamer)
[12] = target: the molecule itself; experiment: crystal structure; V66I:V73I:Y160F PfPNP with ImmH and phosphate, 2.8 Å, space group I4(1)32, 2 molecules in the asymmetric unit; hexamer as a trimer of dimers

Molecule: Nc1nc2c(CN3C[C@H](CO)[C@@H](O)C3)c[nH]c2c(=O)[nH]1 [DADMe-Immucillin-G]
- efficacy against P. falciparum [1]: effective against P. falciparum in the Aotus model

Molecule: O=c1[nH]cnc2c([C@@H]3N[C@H](CO)[C@@H](O)[C@H]3O)c[nH]c12 [ImmH, Immucillin-H]
- Ki [2]: 0.93 nM
- Ki [3]: 270 nM
- Ki* [4]: (-) ^c
- Ki [5]: 3.6 nM
- Ki ([6]; initial): 450 nM
- Ki ([6]; slow onset): 2 nM
- effect on P. falciparum [7]: causes P. falciparum cell death by purine starvation

Molecule: CSC[C@H]1N[C@@H](c2c[nH]c3c(=O)[nH]cnc23)[C@H](O)[C@@H]1O [MT-ImmH, 5′-methylthioimmucillin-H]
- less effective for TgPNP than for PfPNP (Ki*) [8]: more than 160 fold
- Ki ([6]; initial): 7100 nM
- Ki ([6]; slow onset): 290 nM
- greater specificity for PfPNP versus mammalian PNP [9]: 100 fold

B1: PfPNP (wild type) (Plasmodium falciparum 3D7) (protein)
chain: MDNLLRHLKISKEQITPVVLVVGDPGRVDKIKVVCDSYVDLAYNREYKSVECHYKGQKFLCVSHGVGSAGCAVCFEELCQNGAKVIIRAGSCGSLQPDLIKRGDICICNAAVREDRVSHLLIHGDFPAVGDFDVYDTLNKCAQELNVPVFNGISVSSDMYYPNKIIPSRLEDYSKANAAVVEMELATLMVIGTLRKVKTGGILIVDGCPFKWDEGDFDNNLVPHQLENMIKIALGACAKLATKYA
notes: made in house; host or cells: Escherichia coli Top 10
- Km [10]: 11 ± 5 µM
- kcat [10]: 1.7 ± 0.7 s⁻¹
- kcat/Km [10]: 150000 M⁻¹ s⁻¹

B2: Plasmodium falciparum purine nucleoside phosphorylase (PfPNP), wild type (enzyme, Plasmodium falciparum (3D7 strain))
chain: DNLLRHLKISKEQITPVVLVVGDPGRVDKIKVVCDSYVDLAYNREYKSVECHYKGQKFLCVSHGVGSAGCAVCFEELCQNGAKVIIRAGSCGSLQPDLIKRGDICICNAAVREDRVSHLLIHGDFPAVGDFDVYDTLNKCAQELNVPVFNGISVSSDMYYPNKIIPSRLEDYSKANAAVVEMELATLMVIGTLRKVKTGGILIVDGCPFKWDEGDFDNNLVPHQLENMIKIALGACAKLATKYA
notes: purine nucleoside phosphorylase of P. falciparum 3D7; also called PfPNP WT; wild-type PfPNP; source: E. coli Top 10, purified (Ni-NTA); not shown: c-Myc, C-terminal, kept; His6, C-terminal, kept
- stoichiometry N [11]: 6

B3: V66I:V73I:Y160F PfPNP (triple mutant Val66Ile:Val73Ile:Tyr160Phe) (enzyme)
chain: B2 chain with V65I, V72I, Y159F
notes: also called Pf V66I:V73I:Y160F; triple PfPNP mutant; source: E. coli Top 10, purified (Ni-NTA; Superdex 200 for larger scale); not shown: c-Myc, C-terminal, kept; His6, C-terminal, kept
- stoichiometry N [12]: 6
